{"source": "patent US20260043020A1", "about": "“BINDING MEMBERS WITH ALTERED DIVERSITY SCAFFOLD DOMAINS” (priority 2016, published 2026)", "target": "T1, trypsin (Bos taurus, UniProt P00760)", "T1 construct": "gene PRSS1", "T1 sequence (P00760 24-246)": "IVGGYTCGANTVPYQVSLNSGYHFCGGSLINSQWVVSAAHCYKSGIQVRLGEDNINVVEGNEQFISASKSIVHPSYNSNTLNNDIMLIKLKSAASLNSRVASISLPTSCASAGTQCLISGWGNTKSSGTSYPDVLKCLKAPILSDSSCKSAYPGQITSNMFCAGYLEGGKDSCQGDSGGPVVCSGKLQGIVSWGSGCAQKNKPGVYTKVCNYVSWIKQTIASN", "test": "Polyclonal phage TRF binding assay on trypsin", "settings": "phage display; direct gene-III fusion or round-2 polyclonal phage", "protocol": "Phage display technology facilitates isolation of binders to any given target from large combinatorial repertoires based on proteins and peptides that can be presented on the surface of filamentous phage^105. In order to isolate functional knottin-antibody fusions from the KnotBody libraries multiple rounds of phage display selections on trypsin (cognate antigen for the EETI-II donor) were carried out. Phage particles were prepared by rescuing KnotBody libraries using trypsin cleavable helper phage^102,106Two rounds of phage display selections were performed on 10 μg/ml biotinylated trypsin immobilised on Streptavidin (for Round-1) or Neutravidin (for round-2) coated Maxisorp™ immunotubes (Thermo Scientific, Cat No. 444202). In both rounds of selection, phage libraries were pre-incubated with streptavidin coated paramagnetic beads (Thermo Fisher Scientific, Cat. No. 11205D). […] Polyclonal phage preparations from round-2 selection outputs were analysed for trypsin binding using a time resolved fluorescence (TRF) binding assay. In this assay, polyclonal phage binding to biotinylated trypsin immobilised on neutravidin (Thermo Fisher Scientific, Cat. No 31000) coated Maxisorp™ plates (Thermo Scientific, Cat. No. 437111) was detected using a mouse anti-M13 antibody (GE Healthcare, Cat. No. 27-9420-01) followed by europium conjugated anti-mouse antibody (Perkin Elmer, Cat. No. AD0124). […]"}
{"substance": "EETI-II", "values": [{"measurement": "phage binding to trypsin", "value": "no detectable binding"}]}
